Results from ChEMBL document CHEMBL5260860, “Simple monocyclic pyrimidine analogs as microtubule targeting agents binding to the colchicine site” (Bioorg Med Chem, 2023).
Active and inactive are the calls of the source. No cut-off for these calls is given here.

What was measured:
Tubulin = Tubulin (Bos taurus, UniProt Q6B856+Q862L2+Q862F3); assay: Inhibition of bovine brain tubulin assembly; format: tissue-based
[1] = Induction of microtubule depolymerization in rat A10 cells incubated for 18 hrs by indirect immunofluorescence analysis; format: cell-based
[2] = Selectivity ratio of EC50 for induction of microtubule depolymerization in rat A10 cells to IC50 for antiproliferative activity against human MDA-MB-435 cells
Tubulin (Bos taurus) = Tubulin (Bos taurus) (UniProt Q6B856+Q862L2+Q862F3); assay: Displacement of [3H]colchicine from bovine brain tubulin at 5 uM incubated for 10 mins; format: tissue-based
MDA-MB-435 [3] = assay: Antiproliferative activity against human MDA-MB-435 cells assessed as inhibition of cell growth by SRB assay; format: functional, cell-based
HeLa [4] = assay: Antiproliferative activity against human HeLa cells overexpressing betaIII-tubulin assessed as inhibition of cell growth by SRB assay; format: functional, cell-based
SK-OV-3 [5] = assay: Antiproliferative activity against wild type human SK-OV-3 cells assessed as inhibition of cell growth by SRB assay; format: functional, cell-based
HeLa [6] = assay: Antiproliferative activity against wild type human HeLa cells assessed as inhibition of cell growth by SRB assay; format: functional, cell-based
SK-OV-3 [7] = assay: Antiproliferative activity against human SK-OV-3 cells overexpressing MDR-1-M6/6 assessed as inhibition of cell growth by SRB assay; format: functional, cell-based
MDA-MB-435 [8] = assay: Antitumor activity against human MDA-MB-435 cells xenografted in nude mouse at 15 mg/kg, ip administered 3 times a week for 2 weeks and measured on day 14; format: functional, organism-based; conditions: time 14.0 day
MDA-MB-435 [9] = assay: Antitumor activity against human MDA-MB-435 cells xenografted in nude mouse assessed as reduction in tumor volume at 15 mg/kg, ip administered 3 times a week for 2 weeks and measured on day 14; format: functional, organism-based; conditions: time 14.0 day
MDA-MB-435 [10] = assay: Antitumor activity against human MDA-MB-435 cells xenografted in nude mouse assessed as reduction in tumor volume at 50 mg/kg, ip administered 3 times a week for 2 weeks and measured on day 14; format: functional, organism-based; conditions: time 14.0 day
MDA-MB-435 [11] = assay: Antitumor activity against human MDA-MB-435 cells xenografted in nude mouse at 50 mg/kg, ip administered 3 times a week for 2 weeks and measured on day 14; format: functional, organism-based; conditions: time 14.0 day

| IC50 (Tubulin) [nM] | EC50 [1] [nM] | inhibition (Tubulin (Bos taurus)) [%] | IC50 (MDA-MB-435 [3]) [nM] | IC50 (HeLa [4]) [nM] | IC50 (SK-OV-3 [5]) [nM] | IC50 (HeLa [6]) [nM] | IC50 (SK-OV-3 [7]) [nM] | Structure (SMILES) | Selectivity ratio [2] | Activity (MDA-MB-435 [8]) | Activity (MDA-MB-435 [9]) | Activity (MDA-MB-435 [10]) | Activity (MDA-MB-435 [11]) |
| --- | --- | --- | --- | --- | --- | --- | --- | --- | --- | --- | --- | --- | --- |
| 2600 | 5800 | 70 |  |  |  |  |  | COc1ccc(N(C)c2nc(C)nc3[nH]ccc23)cc1 | 32 |  |  |  |  |
|  | > 15000 |  | 3700 |  |  |  |  | COc1ccc(N(C)c2nc(C)nc(NC(C)=O)c2Cl)cc1 |  |  |  |  |  |
|  | > 10000 |  | 2100 | 2600 | 3300 | 2600 |  | COc1ccc2c(c1)CCCN2c1nc(C)nc(NC(=O)C(C)(C)C)c1Cl |  |  |  |  |  |
|  | 1400 | 61 | 220 | 279 | 459 | 312 | 576 | COc1ccc2c(c1)CCCN2c1nc(C)nc(N)c1Cl | 6.5 |  |  |  |  |
|  | 831 | 74 | 56.1 | 70.2 | 64.7 | 67.1 | 193 | COc1cccc2cc(N(C)c3nc(C)nc(N)c3Cl)ccc12 | 15 |  |  |  |  |
|  | 9200 | 60 | 620 | 415 | 742 | 490 | 1050 | Cc1nc(N)c(Cl)c(N(C)c2ccc3c(c2)CCO3)n1 | 15 |  |  |  |  |
|  | 432 | 84 | 84.4 | 105 | 122 | 66.2 | 165 | CCCCNc1nc(C)nc(N(C)c2ccc(OC)cc2)c1Cl | 5 |  |  |  |  |
|  | > 10000 |  |  |  |  |  |  | COc1cccc(N(C)c2nc(C)nc(N)c2Cl)c1 |  |  |  |  |  |
|  | > 10000 |  |  |  |  |  |  | COc1ccc(Nc2nc(C)nc(N)c2Cl)cc1 |  |  |  |  |  |
|  | 3300 | 71 | 140 | 163 | 277 | 158 |  | CSc1ccc(N(C)c2nc(C)nc(N)c2Cl)cc1 |  |  |  |  |  |
|  | > 10000 | 14 |  |  |  |  |  | COc1ccc(N(C)c2nc(C)nc(NCc3ccccc3)c2Cl)cc1 |  |  |  |  |  |
|  |  |  |  |  | 5 |  |  | CC(=O)O[C@H]1C(=O)[C@@]2(C)[C@H]([C@H](OC(=O)c3ccccc3)[C@]3(O)C[C@H](OC(=O)[C@H](O)[C@@H](NC(=O)c4ccccc4)c4ccccc4)C(C)=C1C3(C)C)[C@]1(OC(C)=O)CO[C@@H]1C[C@@H]2O [PACLITAXEL] |  | inactive | Active |  |  |
|  | > 8000 | 45 | 206 | 250 | 312 | 229 | > 500 | COc1ccc(N(C)c2nc(C)nc(N)c2C)cc1 | >39 |  |  |  |  |
|  | 1500 | 76 | 71.3 | 112 | 133 | 86.3 | 180 | COc1ccc(N(C)c2nc(C)nc(N)c2Cl)cc1 | 21 |  |  |  |  |
|  | 394 | 57 | 78.1 | 104 | 107 | 96.7 | 117 | COc1ccc(N(C)c2nc(C)nc(NCC(C)C)c2Cl)cc1 | 5 |  |  |  |  |
|  | 260 | 61 | 221 | 234 | 227 | 368 | 362 | CCCNc1nc(C)nc(N(C)c2ccc3c(OC)cccc3c2)c1Cl | 1.2 |  |  |  |  |
|  | 7400 |  | 685 | 1000 | 1400 | 800 | 1600 | COc1ccc(N(C)c2nc(C)nc(NC(C)C)c2Cl)cc1 | 11 |  |  |  |  |
|  | 123 | 82 | 24.4 | 33.8 | 34.2 | 27.9 | 39.2 | CCCNc1nc(C)nc(N(C)c2ccc(OC)cc2)c1Cl | 5 |  |  | Active | inactive |
|  | 2100 | 68 | 103 | 107 | 118 | 87.6 | 169 | CNc1nc(C)nc(N(C)c2ccc(OC)cc2)c1Cl | 20 |  |  |  |  |
|  | 305 | 74 | 50.4 | 61.7 | 77.9 | 41.8 | 93.5 | CCNc1nc(C)nc(N(C)c2ccc(OC)cc2)c1Cl | 6 |  |  |  |  |

| Structure (SMILES) | IC50 (Tubulin) [nM] | EC50 [1] [nM] | inhibition (Tubulin (Bos taurus)) [%] | IC50 (MDA-MB-435 [3]) [nM] | IC50 (HeLa [4]) [nM] | IC50 (SK-OV-3 [5]) [nM] | IC50 (HeLa [6]) [nM] | IC50 (SK-OV-3 [7]) [nM] | Selectivity ratio [2] | Activity (MDA-MB-435 [8]) | Activity (MDA-MB-435 [9]) | Activity (MDA-MB-435 [10]) | Activity (MDA-MB-435 [11]) |
| --- | --- | --- | --- | --- | --- | --- | --- | --- | --- | --- | --- | --- | --- |
| COc1ccc(/C=C\c2cc(OC)c(OC)c(OC)c2)cc1O [COMBRETASTATIN A4] |  | 9.8 |  |  |  |  |  |  |  |  |  |  |  |
